Experimental data taken from publication PMC3130785, “Small Compound 6-O-Angeloylplenolin Induces Mitotic Arrest and Exhibits Therapeutic Potentials in Multiple Myeloma” (PLoS ONE, 2011).

Experiments:
[1] = tested on: pERK1/2; experiment: Western blotting, 6-OAP/BOR; format: cell-based, human; settings: MM.1S; 6-OAP 5 µM for 6 h
Description: Cell pellets were lysed in RIPA buffer containing 50 mM Tris pH 8.0, 150 mM NaCl, 0.1% SDS, 0.5% deoxycholate, 1% NP-40, 1 mM DTT, 1 mM NaF, 1 mM sodium vanadate, and protease inhibitors cocktail (Sigma). For immunoprecipitations, cells were lysed on ice for 15 minutes in RIPA buffer. Lysates were centrifuged. The supernatant was incubated with indicated antibodies overnight, after which protein A/G Plus beads (Santa Cruz Biotechnology) were added and incubated for 3 h. The beads were washed 4 times in RIPA buffer. Then the beads were resuspended in 1× sample buffer and boiled for 3 min. Protein extracts were quantitated and loaded on 8% to 12% sodium dodecyl sulfate polyacrylamide gel, electrophoresed, and transferred to a nitrocellulose membrane (Whatman). The membrane was incubated with primary antibody, washed, and incubated with horseradish peroxidase (HRP)–conjugated secondary antibody (Pierce). Detection was performed by using a chemiluminescent western detection kit (Cell Signaling). […]

[2] = tested on: U266 cells; experiment: U266 xenograft murine model; format: in vivo, BALB/c nude mice
Description: All mice used in this study were bred and maintained in a specific pathogen-free environment. BALB/c nude mice (6 to 7 weeks old) were obtained from the Shanghai Laboratory Animal Center (Shanghai, China), and maintained and monitored in a specific pathogen-free environment. All animal studies were conducted according to protocols approved by the Animal Ethics Committee of our institute. The mice were injected subcutaneously with 1×10^7 U266 cells in 100 µL RPMI-1640 media into the right flank. Treatments were started when the tumors reached a palpable size. The control group received vehicle (0.8% DMSO/18% Cremophor/8% Ethanol in normal saline), while the other two groups received intraperitoneally injection of 6-OAP (50 or 75 mg/kg per day, five times a week for 4 weeks). Caliper measurements of the longest perpendicular tumor diameters were performed twice a week to estimate the tumor volume, using the following formula: 4π/3× (width/2)^2× (length/2), representing the 3-dimensional volume of an ellipse. Animals were sacrificed when tumors reached 2 cm or if the mice appeared moribund to prevent unnecessary morbidity to the mice. At the time of the animals' death, tumors were excised; cells were separated and subjected to immunofluorescence analysis or lyzed for Western blotting.
Figure 6 In vivo therapeutic efficacy of 6-OAP on human MM murine model. Nude mice were given subcutaneous inoculations in the right flank with 1×10^7 U266 cells. When the tumors reached a palpable size, the mice were treated intraperitoneally with vehicle or 6-OAP (50 or 75 mg/kg, 5 times a week for 4 weeks). […] (C) Survival curve of control and 6-OAP-treated mice. […] (E) Tumor samples were harvested from mice treated with vehicle or 50 mg/kg 6-OAP and subjected to immunofluorescence analysis using an anti-α-tubulin antibody and DAPI. (F) Tumor tissues were harvested from mice treated with vehicle or 50 mg/kg 6-OAP, whole-tissue lysates were subjected to Western blotting using an anti-cyclin B1 antibody. (G) The concentration-time profiles of 6-OAP after intravenous (30 mg/kg) or intraperitoneal (40 mg/kg) injection of 6-OAP in Sprague-Dawley rats.

[3] = tested on: U266, RPMI 8226, MM.1S, and MM.1R cells; experiment: Trypan blue exclusion assay; format: cell-based, human; settings: 6-OAP 5 to 7.5 µM
Description: U266, RPMI 8226 cells (1×10^4), primary CD138+ cells, PBMCs (5×10^4), and BMSCs (1×10^4) were cultured in 96-well dishes and incubated without or with 6-OAP at indicated concentration for 48 h. MM.1S and MM.1R cells (2×10^4) were seeded into 96-well dishes and pre-cultured for 24 h, then treated with 6-OAP for 48 h. Cell proliferation was determined by MTT assay. Cell viability was estimated by trypan blue dye exclusion.

SMILES: CC=C(C)C(=O)OC1C2C(CC(C)C3C=CC(=O)C31C)OC(=O)C2C (stereo not shown) [6-OAP, 6-O-angeloylplenolin]
- phosphorylated ERK1/2 [1]: induced an increase in phosphorylated ERK1/2
- cyclin B1 in tumor tissues ([2]; 50 mg/kg, Western blotting, vs control mice): accumulated
- spindle formation in tumor samples ([2]; 50 mg/kg, immunofluorescence, anti-α-tubulin): apparent spindle formation was detected
- tumor growth ([2]; 50 and 75 mg/kg ip, five times a week for four weeks, vs vehicle, P<.0001): significantly inhibited tumor growth
- body weight of mice ([2]; 50 or 75 mg/kg ip, 4 weeks): did not reduce body weight
- survival ([2]; 50 or 75 mg/kg ip, vs vehicle control): prolonged
- cell growth (trypan blue exclusion) [3]: markedly inhibited cell growth
